Results taken from article PMC6199744, “Development of Chemical Proteomics for the Folateome and Analysis of the Kinetoplastid Folateome” (ACS Infectious Diseases, 2018).
Several values for one entry are separate records, joined by “and”; a condition that tells them apart may be missing. Equal values may be shown once. Read-outs that look alike come from different tables or passages of the source.

Tested on: T. brucei lysate proteins
Type: binding, Trypanosoma brucei

SMILES: NCCCNc1ccc(C(=O)NC(CCC(=O)O)C(=O)O)cc1 (stereo not shown) [compound 7]
- fold change vs vehicle control: 0.96 and 1.1 and 0.99
- fold change (protein CZB00000046.1 HA-UBIQUITIN, vehicle control = 1): 0.74
- fold change (protein RHS6A, vehicle control = 1): 0.95
- fold change vs vehicle control (protein TB09.160.3270 ATP-DEPENDENT DEAD BOX HELICASE, PUTATIVE, vehicle control = 1): 0.89
- fold change (protein TB09.160.3710 PRO[…] NUCLEAR ANTIGEN (PCNA), PUTATIVE, vehicle control = 1): 0.81
- fold change vs vehicle control (protein TB09.160.4200 60S ACIDIC RIBOSOMAL PROTEIN, PUTATIVE, vehicle control = 1): 0.64
- fold change vs vehicle control (protein TB09.160.4250 TR[…], vehicle control = 1): 0.94
- fold change vs vehicle control (protein TB09.211.2630 60S RIBOSOMAL PROTEIN L23, PUTATIVE, vehicle control = 1): 0.98
- fold change (protein TB09.211.4460 ADP-RI[…], PUTATIVE, vehicle control = 1): 0.93
- fold change (protein TB09.211.4513 KIN[…] PROTEIN KMP-11, vehicle control = 1): 0.88
- fold change (protein TB09.211.4760 METACASPASE 5, PUTATIVE, vehicle control = 1): 1.1
- fold change vs vehicle control (protein TB09.244.2780 HY[…], CONSERVED, vehicle control = 1): 1.54
- fold change (protein TB11.01.0450 PROTEIN PHOSPHATASE 1, PUTATIVE, vehicle control = 1): 1
- fold change vs vehicle control (protein TB11.01.2560 40S RIBOSOMAL PROTEIN SA, PUTATIVE, vehicle control = 1): 0.82
- fold change vs vehicle control (protein TB11.01.3180 GUANINE NUCLEOTIDE-BINDING PROTEIN BETA SUBUNIT-LIKE PROTEIN, vehicle control = 1): 0.93
- fold change vs vehicle control (protein TB11.01.4370 HY[…], CONSERVED, vehicle control = 1): 0.8
- fold change (protein TB11.01.5350 PROFILIN, vehicle control = 1): 0.98
- fold change (protein TB11.01.5860 T-COMPLEX PROTEIN 1, EPSILON SUBUNIT, PUTATIVE, vehicle control = 1): 0.91
- fold change (protein TB11.01.8590 RAB-LIKE 5, SMALL G PROTEIN, vehicle control = 1): 0.85
- fold change (protein TB11.01.8740 PROTEIN PHOSPHATASE 4, PUTATIVE, vehicle control = 1): 0.77
- fold change vs vehicle control (protein TB11.02.2040 HY[…], CONSERVED (ALBA-Domain Protein), vehicle control = 1): 0.84
- fold change vs vehicle control (protein TB11.02.2420 HY[…], CONSERVED, vehicle control = 1): 0.99
- fold change vs vehicle control (protein TB11.02.2640 DYNEIN IN[…] IC78, PUTATIVE, vehicle control = 1): 1.17
- fold change (protein TB11.02.2960 MIT[…] PROTEIN, PUTATIVE, vehicle control = 1): 0.88
- fold change vs vehicle control (protein TB11.02.4170 40S RIBOSOMAL PROTEIN S5, PUTATIVE, vehicle control = 1): 1.18
- fold change (protein TB11.02.4700 14-3-3 PROTEIN, vehicle control = 1): 1
- fold change vs vehicle control (protein TB11.03.0250 C[…], vehicle control = 1): 0.88
- fold change vs vehicle control (protein TB11.03.0530 HY[…], CONSERVED (hy[…] SCD6.10), vehicle control = 1): 1.76
- fold change vs vehicle control (protein TB427TMP.01.0480 HY[…], CONSERVED, vehicle control = 1): 1
- fold change (protein TB427TMP.01.1470 60S RIBOSOMAL PROTEIN L10A, PUTATIVE, vehicle control = 1): 0.84
- fold change vs vehicle control (protein TB427TMP.01.4280 HY[…], CONSERVED, vehicle control = 1): 1.2
- fold change vs vehicle control (protein TB427TMP.01.5680 HY[…], CONSERVED, vehicle control = 1): 0.98
- fold change vs vehicle control (protein TB427TMP.01.5690 DRBD4, vehicle control = 1): 0.89
- fold change (protein TB427TMP.01.5960 MIT[…] PROTEIN, PUTATIVE, vehicle control = 1): 0.93
- fold change vs vehicle control (protein TB427TMP.01.6890 SMALL GTPASE, PUTATIVE, vehicle control = 1): 1.8
- fold change (protein TB427TMP.01.7490 HY[…], CONSERVED, vehicle control = 1): 0.96
- fold change vs vehicle control (protein TB427TMP.01.7530 HY[…], CONSERVED, vehicle control = 1): 1
- fold change (protein TB427TMP.01.8390 HY[…], CONSERVED, vehicle control = 1): 0.96
- fold change (protein TB427TMP.01.8570 DYNEIN LIGHT IN[…] D1BLIC, PUTATIVE, vehicle control = 1): 0.95
- fold change (protein TB427TMP.02.0030 DYNEIN HEAVY CHAIN, PUTATIVE, vehicle control = 1): 0.88
- fold change (protein TB427TMP.02.0460 NUCLEOPORIN, vehicle control = 1): 0.98
- fold change (protein TB427TMP.02.0750 T-COMPLEX PROTEIN 1, ZETA SUBUNIT, PUTATIVE, vehicle control = 1): 1
- fold change (protein TB427TMP.02.0760 DYNEIN HEAVY CHAIN, PUTATIVE, vehicle control = 1): 0.91
- fold change (protein TB427TMP.02.1070 AMINOPEPTIDASE, PUTATIVE, vehicle control = 1): 0.72
- fold change vs vehicle control (protein TB427TMP.02.1085 40S RIBOSOMAL PROTEIN S4, PUTATIVE, vehicle control = 1): 0.78
- fold change (protein TB427TMP.02.1106 NUCLEOBASE/NUCLEOSIDE TRANSPORTER 8 1, vehicle control = 1): 0.95
- fold change vs vehicle control (protein TB427TMP.02.2070 LONG-CHAIN-FATTY-ACID-COA LIGASE, PUTATIVE, vehicle control = 1): 0.95
- fold change vs vehicle control (protein TB427TMP.02.2890 HY[…], CONSERVED, vehicle control = 1): 1.22
- fold change vs vehicle control (protein TB427TMP.02.4300 HY[…], CONSERVED, vehicle control = 1): 1.4
- fold change (protein TB427TMP.02.4550 HY[…], CONSERVED, vehicle control = 1): 0.93
- fold change vs vehicle control (protein TB427TMP.02.5450 GLUCOSE-REGULATED PROTEIN 78, PUTATIVE, vehicle control = 1): 0.97
- fold change (protein TB427TMP.02.5660 HY[…], CONSERVED, vehicle control = 1): 0.82
- fold change (protein TB427TMP.03.0150 HY[…], CONSERVED, vehicle control = 1): 0.91
- fold change (protein TB427TMP.160.2370 HY[…], CONSERVED, vehicle control = 1): 0.91
- fold change vs vehicle control (protein TB427TMP.160.4620 INOSITOL-1(OR 4)-MONOPHOSPHATASE, PUTATIVE, vehicle control = 1): 0.99
- fold change vs vehicle control (protein TB427TMP.160.4630 HY[…], CONSERVED, vehicle control = 1): 0.83
- fold change (protein TB427TMP.160.4770 PROTEIN KINASE, PUTATIVE, vehicle control = 1): 0.89
- fold change (protein TB427TMP.160.5670 HY[…], CONSERVED, vehicle control = 1): 1.47
- fold change (protein TB427TMP.211.0740 P21 ANTIGEN PROTEIN, PUTATIVE, vehicle control = 1): 0.79
- fold change (protein TB427TMP.211.0930 POLYADENYLATE-BINDING PROTEIN 1 (POLY(A)-BINDING PROTEIN 1) (PABP 1), vehicle control = 1): 0.89
- fold change (protein TB427TMP.211.2460 HY[…], CONSERVED, vehicle control = 1): 0.96
- fold change vs vehicle control (protein TB427TMP.211.2570 T-COMPLEX PROTEIN 1, ETA SUBUNIT, PUTATIVE, vehicle control = 1): 0.8
- fold change vs vehicle control (protein TB427TMP.211.3140 HY[…], CONSERVED, vehicle control = 1): 2.05
- fold change vs vehicle control (protein TB427TMP.211.3510 ATP-DEPENDENT DEAD/H RNA HELICASE, PUTATIVE, vehicle control = 1): 0.97
- fold change vs vehicle control (protein TB427TMP.211.4170 HY[…], CONSERVED, vehicle control = 1): 1.18
- fold change vs vehicle control (protein TB427TMP.22.0003 PHOSPH[…], PUTATIVE, vehicle control = 1): 1.32
- fold change (protein TB427TMP.244.2840 HY[…], CONSERVED, vehicle control = 1): 0.93
- fold change (protein TB427TMP.47.0011 HY[…], CONSERVED, vehicle control = 1): 0.87
- fold change vs vehicle control (protein TB427TMP.55.0006 INTR[…] PROTEIN IFT88, vehicle control = 1): 0.91
- fold change vs vehicle control (protein TB427.01.120 RETRO[…] SPOT (RHS) PROTEIN, PUTATIVE, vehicle control = 1): 0.9
- fold change (protein TB427.01.2570 COATOMER BETA SUBUNIT, vehicle control = 1): 0.94
- fold change (protein TB427.01.5030 LEUCINE-RICH REPEAT PROTEIN (LRRP), PUTATIVE, vehicle control = 1): 0.98
- fold change vs vehicle control (protein TB427.02.2970 MIT[…] PROTEIN, PUTATIVE, vehicle control = 1): 1.23
- fold change vs vehicle control (protein TB427.02.3880 HET[…] RIBONUC[…]/F, PUTATIVE, vehicle control = 1): 1.22
- fold change vs vehicle control (protein TB427.03.1210 PROTEIN TRANSPORT PROTEIN SEC24, vehicle control = 1): 1.18
- fold change vs vehicle control (protein TB427.03.3160 POLY(A) POLYMERASE, vehicle control = 1): 1.17
- fold change vs vehicle control (protein TB427.03.3950 HY[…], CONSERVED, vehicle control = 1): 0.95
- fold change vs vehicle control (protein TB427.03.4040 HY[…], CONSERVED (Ankyrinrepeat), vehicle control = 1): 1.73
- fold change vs vehicle control (protein TB427.04.1080 V-TYPE ATPASE, A SUBUNIT, PUTATIVE, vehicle control = 1): 1.34
- fold change (protein TB427.04.1090 ENDOSOMAL INTEGRAL MEMBRANE PROTEIN, PUTATIVE, vehicle control = 1): 1.3
- fold change (protein TB427.04.1300 HY[…], CONSERVED, vehicle control = 1): 0.92
- fold change vs vehicle control (protein TB427.04.1660 MIT[…] PROTEIN, PUTATIVE, vehicle control = 1): 0.89
- fold change (protein TB427.04.310 HY[…], CONSERVED, vehicle control = 1): 0.56
- fold change (protein TB427.04.3890 ATP-DEPENDENT RNA HELICASE, PUTATIVE, vehicle control = 1): 0.88
- fold change (protein TB427.04.420 PHOSPHATIDYLINOSITOL 3-KINASE (TOR2), vehicle control = 1): 0.71
- fold change (protein TB427.04.450 COATOMER ALPHA SUBUNIT, PUTATIVE, vehicle control = 1): 0.89
- fold change (protein TB427.04.5010 CALRETICULIN, PUTATIVE, vehicle control = 1): 0.83
- fold change (protein TB427.04.5200 NUCLEOPORIN (NUP54/57), PUTATIVE, vehicle control = 1): 0.99
